Where a SMILES comes first, the peptide text is derived from it. The star is where a group is joined. X1 = CN(C)c1ccc2c(-c3ccc(C(=O)*)cc3C(=O)[O-])c3ccc(=[N+](C)C)cc-3oc2c1
Columns and labels:
Caspase-3 = assay: Western blotting of Caspase-3; type: cell-based, human; conditions: Ca922, 25 μM, treatment time up to 48 hours, FIG. 11B, 11C
Procedure: (§1) Protein lysate of Ca922 cells treated with TMR-GBP 25 μM were blotted with antibodies against Caspase-3, Caspase-7, Caspase-9 and Poly (ADP-ribose) polymerase (PARP). Representative blots are shown.
Ca922 cells were treated with TMR-GBP and collected at indicated time points. Then blotted for Caspase-3 to observe whether TMR-GBP triggered […] apoptosis pathway.
(§2) Western Blotting Analysis
(§3) Cells were harvested by trypsion or scratch and lysed in RIPA buffer (50 mM Tris-HCl, pH 7.4, 150 mM NaCl, 0.1% SDS, 0.5% Sodium deoxycholate, 1% NP-40) supplemented with 1× protease inhibitor cocktail. Sample was incubated on ice for 30 minutes and scraped every 10 minutes. Centrifuge at 13,000 rpm at 4° C. for 15 minutes, then collect supernatant for analysis. Protein concentration was determined by Bradford assay. First, 5× Bradford assay dye reagent was diluted into […], and mixture with RIPA (as standard) or samples. Concentration was obtained by spectrophotometer measurement. Equal volume of 2× laemmli buffer containing β-ME was added into protein lysate for goal concentration. […] Washing the membrane three times with 1×PBST for every 5 minutes, protein band was detected by modified ECL (ddH2O, […] Tris pH8.0, 200 μM p-coumaric acid, 1.25 mM luminal, 0.001% H2O2) with ImageQuant LAS 4000 digital imaging system.

[1] = system: Poly (ADP-ribose) polymerase (PARP); assay: Western blotting of PARP cleavage; type: cell-based, human
Procedure: Protein expression of Poly (ADP-ribose) polymerase (PARP) were examined in Ca922 cells treated with 25 μM TMR-GBP for 6 hours.
as §1, §2
as §3, with “concentration. Protein samples were boiled at 100° C. for 15 minutes and resolved by 10% SDS-PAGE gel or 4%-15% gradient gel.” for “concentration.”

OSC20 = assay: Time-lapse live cell imaging, OSC20; type: cell-based, human; conditions: OSC20, unbound TMR-GBP removed, imaged at 15 minutes interval for 16 hours, FIG. 4
Procedure: Time-Lapse Live Cell Imaging
In order to monitor cell morphology and the stability of TMR-GBP, cells were incubated in 35 mm dish or 4 well dish at 37° C. overnight. Replaced the culture medium with CO2-independent medium with supplement of 10% fetal bovine serum (FBS) and 1% penicillin-streptomycin, cells were treated with reagent (TMR, GBP, TMR-GBP) for the time according to the experiment and subjected to time-lapse live cell imaging. Cells were maintained on the microscope stage incubator at 37° C. Multiple-positional time-lapse imaging was performed using an automated Leica DMI6000 inverted microscope equipped with an HCX PL FL 20λ/NA0.4 objective and Andor Luca R EMCCD camera. Images of cells were taken at different interval time and analyzed by MetaMorph software.

Ca922 cells = assay: WST-8 cell viability assay, Ca922; type: cell-based, human; conditions: for cytotoxicity (cell viability): 48 hours
Procedure: (§4) Human oral squamous cell carcinoma (OSCC) cell lines, Ca922, OSC20, OECM-1, OC3, CGHNC9, HSC3, plus A549, MDA-MB-231, MCF7, Huh7, HeLa-Kyoto, Detroit 562, H520, H2170, and 293T cells were used in this study. Ca922, CGHNC9, MDA-MB-231, MCF7, Huh7, HeLa-Kyoto, Detroit 562, and 293T cells were all cultured in high-glucose Dulbecco's Modified Eagle Medium (DMEM). OSC20 and HSC3 cells were cultured in Dulbecco's Modified of Eagle's Medium/Ham's F-12 50/50 Mix (1:1). OECM-1, A549, H520, and H2170 cells were grown in RPMI-1640 medium. All culture media were supplemented with 10% fetal bovine serum (FBS) and 1% penicillin-streptomycin. OC3 cells were cultured in 1:1 DMEM/KSFM (keratinocyte serum-free medium) with supplied supplement of Bovine pituitary extract (BPE) and epidermal growth factor (EGF) followed by instruction. All the cells in this study were maintained at 37° C. in humidified atmosphere containing 5% CO2.
(§5) WST-8 [2-(2-methoxy-4-nitrophenyl)-3-(4-nitrophenyl)-5-(2,4-disulfophenyl)-2H-tetrazolium, monosodium salt] cell viability assay
Cells were seeded into 96 well plate and incubated at 37° C. overnight. Endpoint measures of TMR-GBP or drugs were performed by water soluble tetrazolium salt (WST-8)-based colorimetric assay in triplicate which measures the metabolic conversion of WST-8 into formazan by mitochondrial dehydrogenases present in viable cells. The amount of formazan produced is proportional to the number of live cells and is expressed as cellular viability. When time was up, media were removed and supplemented with WST-8 cell viability reagent-contained cell culture medium (1:10) and incubated at 37° C. for 2 hours. Besides, three wells with WST-8-dissolved medium only (without cells) were reserved as a background control. Cell viability was measured at the absorbance of 450/655 nm wavelength by ELISA reader.

HeLa-Kyoto = assay: WST-8 cell viability assay, HeLa-Kyoto; type: cell-based; conditions: HeLa-Kyoto (cervical cancer), different concentrations, 48 hours, FIG. 3
Procedure: as §4, §5
(§6) Cells were seeded into 96 well plate and incubated at 37° C. overnight. […] The amount of formazan produced is proportional to the number of live cells and is expressed as cellular viability. […] Cell viability was measured at the absorbance of 450/655 nm wavelength by ELISA reader.

A549 = assay: WST-8 cell viability assay, A549; type: cell-based; conditions: A549 (lung cancer), different concentrations, 48 hours, FIG. 3
Procedure: as §4, §5, §6

Huh7 = assay: WST-8 cell viability assay, Huh7; type: cell-based; conditions: Huh7 (liver cancer), different concentrations, 48 hours, FIG. 3
Procedure: as §4, §5, §6

CN(C)c1ccc2c(-c3ccc(C(=O)N[C@@H](CC(N)=O)C(=O)N[C@@H](Cc4ccc(O)cc4)C(=O)N[C@@H](CCCNC(=N)N)C(=O)N[C@@H](Cc4c[nH]c5ccccc45)C(=O)N[C@@H](CCCNC(=N)N)C(=O)N[C@@H](CS)C(=O)N[C@@H](CCCCN)C(=O)N[C@@H](CC(N)=O)C(=O)N[C@@H](CCC(N)=O)C(=O)N[C@@H](CC(N)=O)C(=O)O)cc3C(=O)[O-])c3ccc(=[N+](C)C)cc-3oc2c1 [TMR-GBP] (X1-NYRWRCKNQN-OH; N-terminus and C-terminus assumed)
activation of caspase-3 (Caspase-3): did not activate
PARP cleavage ([1]; Ca922, 25 μM, 6 hours, FIG. 11A): induced PARP cleavage
PARP cleavage after calpain inhibitor ([1]; Ca922, calpain inhibitor pretreated 30 minutes before TMR-GBP, FIG. 11D): still induced PARP cleavage
cell death by time-lapse microscopy (OSC20): most cells die in 8 hours
cytotoxicity (cell viability) (Ca922 cells; Ca922 (oral cancer), different concentrations, FIG. 5): could induce cytotoxicity
TMR-GBP induced cytotoxicity after NAC pretreatment (Ca922 cells; Ca922, NAC pretreated 2 hours, then TMR-GBP 0, 12.5, 25 or 50 μM for 48 hours, FIG. 8B): partially suppressed by NAC
TMR-GBP induced cytotoxicity, dependence on calcium (Ca922 cells; Ca922, calcium chelators BAPTA-AM, EGTA pretreated 2 hours, then TMR-GBP 48 hours, FIG. 8B): independent of calcium release
cytotoxicity (cell viability) (Ca922 cells; Ca922 cells, 50 μM, FIG. 1): could induce cytotoxicity
cell viability (HeLa-Kyoto): not markedly affected
cell viability (A549): not markedly affected
cell viability (Huh7): not markedly affected

Reference: patent publication US11129867B2, “Method of treating cancer cells” (priority 2017, dated 2021)
